Target: T1, sarco(endo)plasmic reticulum Ca2+-ATPase (SERCA1a isoform) (Oryctolagus cuniculus, UniProt P04191)
T1 construct: gene ATP2A1; purified SERCA1a from rabbit skeletal muscle SR in reconstituted proteoliposomes; native SR vesicles for the EC50
Test: SSM electrical measurement of ATP-induced charge translocation (activation); EC50 on native SR vesicles, direct action confirmed with purified SERCA1a proteoliposomes
Type: biochemical

T1 sequence (P04191 1-993): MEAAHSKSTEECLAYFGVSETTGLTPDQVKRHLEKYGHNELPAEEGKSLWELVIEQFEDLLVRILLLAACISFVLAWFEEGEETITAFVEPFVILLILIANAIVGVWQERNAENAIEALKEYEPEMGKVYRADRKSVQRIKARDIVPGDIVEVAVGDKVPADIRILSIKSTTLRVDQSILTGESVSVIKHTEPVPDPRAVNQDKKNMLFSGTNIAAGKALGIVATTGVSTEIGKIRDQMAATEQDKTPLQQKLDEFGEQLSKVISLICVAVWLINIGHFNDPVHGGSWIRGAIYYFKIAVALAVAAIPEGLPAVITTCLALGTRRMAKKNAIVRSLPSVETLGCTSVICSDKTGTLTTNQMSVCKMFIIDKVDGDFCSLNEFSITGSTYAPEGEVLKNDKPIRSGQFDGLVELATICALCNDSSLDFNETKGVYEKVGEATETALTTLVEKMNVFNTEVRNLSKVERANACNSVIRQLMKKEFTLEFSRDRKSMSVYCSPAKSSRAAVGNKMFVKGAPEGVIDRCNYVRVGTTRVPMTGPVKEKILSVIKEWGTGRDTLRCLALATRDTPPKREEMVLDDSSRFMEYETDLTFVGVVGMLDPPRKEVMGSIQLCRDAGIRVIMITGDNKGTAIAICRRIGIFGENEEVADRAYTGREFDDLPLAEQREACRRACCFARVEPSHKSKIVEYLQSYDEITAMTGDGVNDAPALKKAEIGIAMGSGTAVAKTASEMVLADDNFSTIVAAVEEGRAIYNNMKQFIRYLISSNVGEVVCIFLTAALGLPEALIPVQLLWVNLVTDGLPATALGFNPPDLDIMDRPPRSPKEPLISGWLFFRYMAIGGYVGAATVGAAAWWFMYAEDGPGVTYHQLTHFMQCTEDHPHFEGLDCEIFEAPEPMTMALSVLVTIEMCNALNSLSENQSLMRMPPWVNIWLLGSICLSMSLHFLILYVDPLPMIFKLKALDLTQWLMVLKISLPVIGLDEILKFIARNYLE

Cc1ccc2cccc(NC(=O)c3ccc(OC(C)C)cc3)c2n1 [CDN1163]
EC50: 6 ± 0.3 µM

Source: paper PMC8571031, “Stimulation of Ca^2+‐ATPase Transport Activity by a Small‐Molecule Drug” (Chemmedchem, 2021)
